Source: US11957739B2, “Compositions and methods for treating cancer using RHOA dominant negative forms” (Dana-Farber Cancer Institute, Inc., priority 2017, dated 2024)

Experiments:
CDH1-null cells = test: Ectopic expression of RHOA dominant negative forms in CDH1-null cells; assay type: cell-based
Description: (§1) Diffuse Gastric Cancer (DGC) is a highly lethal variant of gastric cancer, which is prone to early invasion and metastasis, and lacks effective molecularly targeted therapies. DGC initiation typically follows loss of tumor suppressor CDH1 which encodes the cellular adhesion protein E-cadherin. Reduction in and/or loss of E-cadherin (CDH1) is the key hallmark of invasive lobular breast cancer and loss-of-function mutations targeting CDH1 are present in 50%-60% of invasive lobular breast cancer and are believed to be an early event often observed in matching lobular carcinoma in situ (McCart Reed et al. (2015) Breast Cancer Res. 17:12). […] These findings indicate that RHOA dominant negative forms can be used as an effective therapy for DGC and lobular breast cancer as well as other cancers with the EMT phenotype.

cells with intact CDH1 = test: Ectopic expression of RHOA dominant negative forms in cells with intact CDH1; assay type: cell-based
Description: as §1

NUGC4 tumor = test: NUGC4 xenograft tumor growth with Dox-induced mutant RHOA expression; assay type: in vivo; details: E-cadherin loss DGC cells in flank of nude mice; Dox food after 2 weeks; P<0.0001 Ctrl vs T19N
Method: Diffuse gastric cancer (DGC) NUGC4 cells were confirmed for total E-cadherin loss by Western blot analysis. The cells were then stably infected with Dox-inducible lenti-RHOA virus using puro selection. Three million NUGC4 cells were injected into the flank of nude mice. After 2 weeks, regular food was changed to food with Dox in order to induce mutant RHOA expression. N=3 mice for each group. P<0.0001: Ctrl-VS-T19N.
(§2) The 4-week-old male nude mice (BALB/cA-nu (nu/nu)) were injected subcutaneously at each flank with cells infected with dox inducible control or RHOA mutant virus. All animals were maintained and used in accordance with the guidelines of the Institutional Animal Care and Use Committee of Dana-Farber Cancer Institute.

MKN45 tumor = test: MKN45 xenograft tumor growth with Dox-induced mutant RHOA expression; assay type: in vivo; details: E-cadherin loss diffuse adenocarcinoma cells in flank of nude mice; Dox food after 2 weeks; P<0.0001 Ctrl vs T19N
Method: The diffuse adenocarcinoma MKN45 cells were confirmed for total E-cadherin loss by Western blot analysis. The cells were then stably infected with Dox-inducible lenti-RHOA virus using puro selection. Three million MKN45 cells were injected into the flank of nude mice. After 2 weeks, regular food was changed to food with Dox in order to induce mutant RHOA expression. N=3 mice for each group. P<0.0001: Ctrl-VS-T19N.
as §2

[1] = system: CDH1-null stomach organoids; test: RHOA ectopic expression in isogenic stomach organoids after tamoxifen-induced E-cadherin loss; assay type: cell-based, mouse; details: ectopic expression by lentivirus; Mist1CreER, Cdh1F/F organoids treated with tamoxifen to induce E-cadherin loss
Method: Mist1CreER, Cdh1^F/F organoids were infected with plx307 lenti-EGFP/RHOA-WT/RHO-T19N virus, and the stably infected organoids were selected by adding puro for 1 week. The cells were then treated with or without tamoxifen to activate Cre to induce E-cadherin loss. The RHOA ectopic expression and E-Cadherin loss were validated both Western blot and Tomato/GFP color switch determinations.
Mist1-CreERT2, Cdh1flox/flox, Tomation/GFP mice, which carry conditional alleles with loxP sites flanking exon 2-3 of Cdh1, were kindly provided by Timothy C. Wang at Columbia University. Cre recombinase was activated by oral administration of tamoxifen (Sigma, T5648) TAM (1-5 mg/0.2 ml corn oil, as indicated). All animal studies and procedures were approved by the ethics committees at Dana-Farber Cancer Institute.
The protocol as previously described in Miyoshi et al. (2013) Nat. Prot. 8:2471-2482 was performed as follows: Euthanize mice using a chemical reagent, open the stomach longitudinally and roughly remove contents on the paper towel. Rinse the tissue with ice cold PBS in a 90 mm petri dish, then wash the tissue with […] ice cold PBS in a 50 ml centrifuge tube by vigorous shaking. After washing, place the tissue in a 35 mm petri dish and bring the dish to a biological hood and mince the tissue with fine scissors. […]

[2] = system: CDH1-null breast epithelial MCF10A cells; test: Cell titer glo assay in MCF10A-CDH1-KO cells with Dox-inducible RHOA mutant virus; assay type: cell-based; details: Dox-inducible expression
Method: (§3) Isogenic MCF10A-CDH1-intact cells were infected with different constitutive RHOA mutant virus and the stably infected cells were selected by adding puro for 1 week. The cells were then plated in 96-well plates for analysis using a cell titer glo assay. The MCF10A-CDH1-K0 cells were infected with different Dox-inducible RHOA mutant viruses and the stably-infected cells were selected by adding puro for 1 week. The cells were then plated in 96-well plates with Dox induction for cell titer glo assay analysis.
(§4) Cell viability assay was performed by following the protocol of CellTiter-Glo® (Promega, Cat #G7570).

CDH1-intact MCF10A cells = test: Cell titer glo assay in isogenic MCF10A-CDH1-intact cells with constitutive RHOA mutant virus; assay type: cell-based; details: constitutive expression
Method: as §3, §4

Row | Substance | cell-death in CDH1-null cells (CDH1-null cells) | proliferation of CDH1-null cells (CDH1-null cells) | inhibition of proliferation and induction of cell-death in cells with intact CDH1 (cells with intact CDH1) | NUGC4 tumor growth (NUGC4 tumor) | MKN45 tumor growth (MKN45 tumor) | killing of CDH1-null stomach organoids [1] | killing of CDH1-null MCF10A cells [2] | effect on CDH1-intact MCF10A cells (CDH1-intact MCF10A cells)
1 | G17E: Human RHOA G17E dominant negative form (SEQ ID NO: 3), ectopically expressed | induction of cell-death | significant inhibition of proliferation | not in cells with intact CDH1 |  |  |  |  | 
2 | G17V: Human RHOA G17V dominant negative form (SEQ ID NO: 2), ectopically expressed | induction of cell-death | significant inhibition of proliferation | not in cells with intact CDH1 |  |  |  |  | 
3 | RHOA-T19N: Human RHOA T19N dominant negative form (SEQ ID NO: 1), ectopically expressed from lentivirus | induction of cell-death | significant inhibition of proliferation | not in cells with intact CDH1 | significantly inhibit | significantly inhibit | specifically kills | specifically kills | spares
